{
  "source": "ChEMBL document CHEMBL1156232",
  "about": "“Non-classical antifolates. Part 2: synthesis, biological evaluation, and molecular modeling study of some new 2,6-substituted-quinazolin-4-ones” (Bioorg Med Chem, 2010)",
  "key": {"Staphylococcus aureus": {"system": "Staphylococcus aureus", "test": "Antibacterial activity against Staphylococcus aureus at 200 ug/disk after 24 hrs by disk diffusion method", "format": "functional"}, "Bacillus subtilis": {"system": "Bacillus subtilis", "test": "Antibacterial activity against Bacillus subtilis at 200 ug/disk after 24 hrs by disk diffusion method", "format": "functional"}, "Micrococcus luteus": {"system": "Micrococcus luteus", "test": "Antibacterial activity against Micrococcus luteus at 200 ug/disk after 24 hrs by disk diffusion method", "format": "functional"}, "Escherichia coli": {"system": "Escherichia coli", "test": "Antibacterial activity against Escherichia coli at 200 ug/disk after 24 hrs by disk diffusion method", "format": "functional"}, "Pseudomonas aeruginosa": {"system": "Pseudomonas aeruginosa", "test": "Antibacterial activity against Pseudomonas aeruginosa at 200 ug/disk after 24 hrs by disk diffusion method", "format": "functional"}, "Candida albicans [1]": {"system": "Candida albicans", "test": "Antifungal activity against Candida albicans at 200 ug/disk after 48 hrs by disk diffusion method", "format": "functional, organism-based"}, "Candida albicans [2]": {"system": "Candida albicans", "test": "Antifungal activity against Candida albicans after 48 hrs by microdilution susceptibility method", "format": "functional, organism-based"}, "Dihydrofolate reductase": {"biological_target": "T1, Dihydrofolate reductase (Bos taurus, UniProt P00376)", "T1 sequence (P00376 whole entry)": "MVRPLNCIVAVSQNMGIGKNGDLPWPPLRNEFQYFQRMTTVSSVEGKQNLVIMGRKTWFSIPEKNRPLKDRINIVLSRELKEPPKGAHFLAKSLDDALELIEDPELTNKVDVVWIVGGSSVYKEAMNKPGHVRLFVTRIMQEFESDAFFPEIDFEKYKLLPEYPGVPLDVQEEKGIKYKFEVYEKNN", "description": "Inhibition of bovine DHFR after 2 mins"}},
  "note": "Active and inactive are the calls of the source. The calls are words filed in the database; no cut-off is given here.",
  "data": [
    {"compound": "CSc1nc2ccc(C)cc2c(=O)n1Cc1ccccc1", "values": [
      {"measurement": "diameter of the inhibition zone (DIZ)", "setting": "Staphylococcus aureus", "value": "inactive"},
      {"measurement": "diameter of the inhibition zone (DIZ)", "setting": "Bacillus subtilis", "value": "inactive"},
      {"measurement": "diameter of the inhibition zone (DIZ)", "setting": "Micrococcus luteus", "value": "inactive"},
      {"measurement": "diameter of the inhibition zone (DIZ)", "setting": "Escherichia coli", "value": "inactive"},
      {"measurement": "diameter of the inhibition zone (DIZ)", "setting": "Pseudomonas aeruginosa", "value": "inactive"},
      {"measurement": "Activity", "setting": "Candida albicans [1]", "value": "inactive"},
      {"measurement": "Activity", "setting": "Candida albicans [2]", "value": "inactive"},
      {"measurement": "IC50", "setting": "Dihydrofolate reductase", "value": 20, "unit": "µM"}
    ]},
    {"compound": "C=CCn1c(SSc2nc(=O)c3cc([N+](=O)[O-])ccc3n2CC=C)nc(=O)c2cc([N+](=O)[O-])ccc21", "values": [
      {"measurement": "diameter of the inhibition zone (DIZ)", "setting": "Staphylococcus aureus", "value": "inactive"},
      {"measurement": "diameter of the inhibition zone (DIZ)", "setting": "Bacillus subtilis", "value": "inactive"},
      {"measurement": "diameter of the inhibition zone (DIZ)", "setting": "Micrococcus luteus", "value": "inactive"},
      {"measurement": "diameter of the inhibition zone (DIZ)", "setting": "Escherichia coli", "value": "inactive"},
      {"measurement": "diameter of the inhibition zone (DIZ)", "setting": "Pseudomonas aeruginosa", "value": "inactive"},
      {"measurement": "Activity", "setting": "Candida albicans [1]", "value": "inactive"},
      {"measurement": "Activity", "setting": "Candida albicans [2]", "value": "inactive"},
      {"measurement": "IC50", "setting": "Dihydrofolate reductase", "value": 10, "unit": "µM"}
    ]},
    {"compound": "C=CC(=O)Nc1ccc2nc(SC)n(Cc3ccccc3)c(=O)c2c1", "values": [
      {"measurement": "diameter of the inhibition zone (DIZ)", "setting": "Staphylococcus aureus", "value": "inactive"},
      {"measurement": "diameter of the inhibition zone (DIZ)", "setting": "Bacillus subtilis", "value": "inactive"},
      {"measurement": "diameter of the inhibition zone (DIZ)", "setting": "Micrococcus luteus", "value": "inactive"},
      {"measurement": "diameter of the inhibition zone (DIZ)", "setting": "Escherichia coli", "value": "inactive"},
      {"measurement": "diameter of the inhibition zone (DIZ)", "setting": "Pseudomonas aeruginosa", "value": "inactive"},
      {"measurement": "Activity", "setting": "Candida albicans [1]", "value": "inactive"},
      {"measurement": "Activity", "setting": "Candida albicans [2]", "value": "inactive"},
      {"measurement": "IC50", "setting": "Dihydrofolate reductase", "value": 50, "unit": "µM"}
    ]},
    {"compound": "CCOC(=O)CCSc1nc2ccc([N+](=O)[O-])cc2c(=O)n1Cc1ccccc1", "values": [
      {"measurement": "diameter of the inhibition zone (DIZ)", "setting": "Staphylococcus aureus", "value": "inactive"},
      {"measurement": "zone of inhibition at 200 µg/disc", "setting": "Bacillus subtilis; read-out: DIZ", "value": 14, "unit": "mm"},
      {"measurement": "diameter of the inhibition zone (DIZ)", "setting": "Micrococcus luteus", "value": "inactive"},
      {"measurement": "zone of inhibition at 200 µg/disc", "setting": "Escherichia coli; read-out: DIZ", "value": 16, "unit": "mm"},
      {"measurement": "zone of inhibition at 200 µg/disc", "setting": "Pseudomonas aeruginosa; read-out: DIZ", "value": 16, "unit": "mm"},
      {"measurement": "Activity", "setting": "Candida albicans [1]", "value": "inactive"},
      {"measurement": "Activity", "setting": "Candida albicans [2]", "value": "inactive"},
      {"measurement": "IC50", "setting": "Dihydrofolate reductase", "value": 25, "unit": "µM"}
    ]},
    {"compound": "CCSc1nc2ccc(C)cc2c(=O)n1Cc1ccccc1", "values": [
      {"measurement": "diameter of the inhibition zone (DIZ)", "setting": "Staphylococcus aureus", "value": "inactive"},
      {"measurement": "diameter of the inhibition zone (DIZ)", "setting": "Bacillus subtilis", "value": "inactive"},
      {"measurement": "diameter of the inhibition zone (DIZ)", "setting": "Micrococcus luteus", "value": "inactive"},
      {"measurement": "diameter of the inhibition zone (DIZ)", "setting": "Escherichia coli", "value": "inactive"},
      {"measurement": "diameter of the inhibition zone (DIZ)", "setting": "Pseudomonas aeruginosa", "value": "inactive"},
      {"measurement": "Activity", "setting": "Candida albicans [1]", "value": "inactive"},
      {"measurement": "Activity", "setting": "Candida albicans [2]", "value": "inactive"},
      {"measurement": "IC50", "setting": "Dihydrofolate reductase", "value": 35, "unit": "µM"}
    ]},
    {"compound": "O=c1c2cc([N+](=O)[O-])ccc2nc(SCc2ccccc2)n1Cc1ccccc1", "values": [
      {"measurement": "diameter of the inhibition zone (DIZ)", "setting": "Staphylococcus aureus", "value": "inactive"},
      {"measurement": "diameter of the inhibition zone (DIZ)", "setting": "Bacillus subtilis", "value": "inactive"},
      {"measurement": "diameter of the inhibition zone (DIZ)", "setting": "Micrococcus luteus", "value": "inactive"},
      {"measurement": "diameter of the inhibition zone (DIZ)", "setting": "Escherichia coli", "value": "inactive"},
      {"measurement": "diameter of the inhibition zone (DIZ)", "setting": "Pseudomonas aeruginosa", "value": "inactive"},
      {"measurement": "Activity", "setting": "Candida albicans [1]", "value": "inactive"},
      {"measurement": "Activity", "setting": "Candida albicans [2]", "value": "inactive"},
      {"measurement": "IC50", "setting": "Dihydrofolate reductase", "value": 30, "unit": "µM"}
    ]},
    {"compound": "C=CCSc1nc2ccc(NC(=O)C=C)cc2c(=O)n1Cc1ccccc1", "values": [
      {"measurement": "diameter of the inhibition zone (DIZ)", "setting": "Staphylococcus aureus", "value": "inactive"},
      {"measurement": "diameter of the inhibition zone (DIZ)", "setting": "Bacillus subtilis", "value": "inactive"},
      {"measurement": "diameter of the inhibition zone (DIZ)", "setting": "Micrococcus luteus", "value": "inactive"},
      {"measurement": "diameter of the inhibition zone (DIZ)", "setting": "Escherichia coli", "value": "inactive"},
      {"measurement": "diameter of the inhibition zone (DIZ)", "setting": "Pseudomonas aeruginosa", "value": "inactive"},
      {"measurement": "Activity", "setting": "Candida albicans [1]", "value": "inactive"},
      {"measurement": "Activity", "setting": "Candida albicans [2]", "value": "inactive"},
      {"measurement": "IC50", "setting": "Dihydrofolate reductase", "value": 10, "unit": "µM"}
    ]},
    {"compound": "CSc1nc2ccc(N)cc2c(=O)n1Cc1ccccc1", "values": [
      {"measurement": "diameter of the inhibition zone (DIZ)", "setting": "Staphylococcus aureus", "value": "inactive"},
      {"measurement": "diameter of the inhibition zone (DIZ)", "setting": "Bacillus subtilis", "value": "inactive"},
      {"measurement": "diameter of the inhibition zone (DIZ)", "setting": "Micrococcus luteus", "value": "inactive"},
      {"measurement": "diameter of the inhibition zone (DIZ)", "setting": "Escherichia coli", "value": "inactive"},
      {"measurement": "diameter of the inhibition zone (DIZ)", "setting": "Pseudomonas aeruginosa", "value": "inactive"},
      {"measurement": "Activity", "setting": "Candida albicans [1]", "value": "inactive"},
      {"measurement": "Activity", "setting": "Candida albicans [2]", "value": "inactive"},
      {"measurement": "IC50", "setting": "Dihydrofolate reductase", "value": 10, "unit": "µM"}
    ]},
    {"compound": "CSc1nc2ccc([N+](=O)[O-])cc2c(=O)n1Cc1ccccc1", "values": [
      {"measurement": "diameter of the inhibition zone (DIZ)", "setting": "Staphylococcus aureus", "value": "inactive"},
      {"measurement": "diameter of the inhibition zone (DIZ)", "setting": "Bacillus subtilis", "value": "inactive"},
      {"measurement": "diameter of the inhibition zone (DIZ)", "setting": "Micrococcus luteus", "value": "inactive"},
      {"measurement": "diameter of the inhibition zone (DIZ)", "setting": "Escherichia coli", "value": "inactive"},
      {"measurement": "diameter of the inhibition zone (DIZ)", "setting": "Pseudomonas aeruginosa", "value": "inactive"},
      {"measurement": "Activity", "setting": "Candida albicans [1]", "value": "inactive"},
      {"measurement": "Activity", "setting": "Candida albicans [2]", "value": "inactive"},
      {"measurement": "IC50", "setting": "Dihydrofolate reductase", "value": 30, "unit": "µM"}
    ]},
    {"compound": "Cc1ccc2nc(SCc3ccccc3)n(Cc3ccccc3)c(=O)c2c1", "values": [
      {"measurement": "diameter of the inhibition zone (DIZ)", "setting": "Staphylococcus aureus", "value": "inactive"},
      {"measurement": "diameter of the inhibition zone (DIZ)", "setting": "Bacillus subtilis", "value": "inactive"},
      {"measurement": "diameter of the inhibition zone (DIZ)", "setting": "Micrococcus luteus", "value": "inactive"},
      {"measurement": "diameter of the inhibition zone (DIZ)", "setting": "Escherichia coli", "value": "inactive"},
      {"measurement": "diameter of the inhibition zone (DIZ)", "setting": "Pseudomonas aeruginosa", "value": "inactive"},
      {"measurement": "Activity", "setting": "Candida albicans [1]", "value": "inactive"},
      {"measurement": "Activity", "setting": "Candida albicans [2]", "value": "inactive"},
      {"measurement": "IC50", "setting": "Dihydrofolate reductase", "value": 10, "unit": "µM"}
    ]}
  ]
}
